Tests used:
[1] = tested on: A549 Human Lung adenocarcinoma cells; assay: in vitro amino acid uptake in A549 cells; type: cell-based
Source text: (§1) Compounds have been evaluated in vitro for tumor binding specificity (i.e. uptake cells) using a variety of tumor cell lines available in the art, along with reference compounds such as Me-AlB and BCH. Detailed description of these assays can be found in Martarello et al. (2002) Journal of Medicinal Chemistry, 45:2250-2259 and McConathy et al. (2003) Nuclear Medicine and Biology, 30:477-490. These so called “amino acid uptake studies” are typically carried out with radiolabeled compounds in at least five phenotypically different human tumor cell lines (e.g., A549 lung carcinoma, MB468 breast carcinoma, DU145 prostate carcinoma-androgen independent, LnCap-androgen dependent, SKOV3 ovarian carcinoma, U87 glial blastoma, MIA PaCa-2 pancreas carcinoma, MDA MB231 breast carcinoma). These tumor cell lines can be grown either in vitro or in vivo with severe combined immunodeficiency (SCID) mice as a host. The afore-mentioned tumor cell lines are available at the Winship Cancer Institute of Emory University.
(§2) For the in vitro amino acid uptake studies, all cells can be grown to monolayer confluency in T-175 culture flasks [Corning, Corning, N.Y.] (approx. 1×10^8 cells/flask) in Dulbecco's Modified Eagle's Medium (DMEM) [Sigma, St. Louis, Mo.] in a humidified incubator (37° C., 5% CO2/95% air). […]
(§3) In the in vitro studies the uptake rate of each amino acid compound is measured in each tumor line, as well as the dominant transport mechanisms of each tumor cell line. After trypsinization, cells are resuspended in serum-free media, then counted on a hemocytometer, with viability assessed through Trypan blue staining. […] The vials are placed in a Cobra-II gamma counter (Packard, Meriden, Conn.), with the activity per cell number determined. […] Saline washes are performed as described above, and the filtered cells' radioactivity determined on the gamma counter. […]
(§4) The uptake of all compounds were measured in human and rat cancer cell lines and the dominant transport (“A” and “L”) mechanism of each culture were determined. […]

[2] = tested on: 9L Rat gliosarcoma cells; assay: in vitro amino acid uptake in 9L cells; type: cell-based
Source text: as §1, §2, §3, §4

[3] = tested on: MDA MB231 Human Breast carcinoma cells; assay: in vitro amino acid uptake in MDA MB231 cells; type: cell-based
Protocol: (§5) Compounds have been evaluated in vitro for tumor binding specificity (i.e. uptake cells) using a variety of tumor cell lines available in the art, along with reference compounds such as Me-AlB and BCH. Detailed description of these assays can be found in Martarello et al. (2002) Journal of Medicinal Chemistry, 45:2250-2259 and McConathy et al. (2003) Nuclear Medicine and Biology, 30:477-490. […]
as §3, §4

[4] = tested on: U87 Human Glioma cells; assay: in vitro amino acid uptake in U87 cells; type: cell-based
Source text: as §1, §2, §3, §4

[5] = tested on: DU145 Human Prostate carcinoma cells; assay: in vitro amino acid uptake in DU145 cells; type: cell-based
Source text: as §1, §2, §3, §4

[6] = tested on: DU145, human prostate cancer cells implanted in flanks; assay: tissue distribution in SCID mice bearing DU145 tumors; type: in vivo; conditions: for tissue distribution, blood / tissue distribution, bone / tissue distribution, brain / tissue distribution, heart / tissue distribution, kidney / tissue distribution, liver / tissue distribution, lung / tissue distribution, muscle / tissue distribution, pancreas / tissue distribution, spleen / tissue distribution, tumor: DU145 tumor-bearing SCID mice, tail vein, ave
Protocol: For the in vitro amino acid uptake studies, all cells can be grown to monolayer confluency in T-175 culture flasks [Corning, Corning, N.Y.] (approx. 1×10^8 cells/flask) in Dulbecco's Modified Eagle's Medium (DMEM) [Sigma, St. Louis, Mo.] in a humidified incubator (37° C., 5% CO2/95% air). Media are supplemented with 10% fetal calf serum [Hyclone, Logan, Utah], and antibiotics (10,000 U/ml penicillin and 10 mg/ml streptomycin) (Sigma, St. Louis, Mo.). For tissue culture passage, monolayer cells are detached by gentle trypsinization, resuspended in complete media, and split 1:10 into new T-flasks. Cultures are passaged weekly, and fed fresh media every 2 to 3 days. To initiate tumor growth in SCID mice, 1×10^6 cells are injected s.c. bilaterally into the flanks (inguinal region) of the recipient animals using a 1 ml syringe with a 27 gauge needle. Ex vivo experiments can be performed with animals containing tumors weighing between 500 mg and 1 g, as estimated by caliper measurement (tumor weight=(π/6)*abc, where a, b and c are the tumor length, width and height, respectively).
Tissue distribution of the compounds is measured in SCID mice (average weight, 20-25 g) bearing human tumors as follows. The candidate radioligands (20 uCi in 0.4 ml 0.9% NaCl) are injected into the tail vein of tumor-bearing mice. […] Tissues (blood, heart, liver, lungs, kidneys, bone, thyroid, muscle, brain and tumor) are excised, rinsed in saline, and blotted dry. The tissues are weighed, placed into 12×75 mm glass vials, the radioactivity determined with a gamma counter, and the percent dose/gram calculated. Total activities of blood and muscle are calculated by assuming that they account for 7% and 40% of the total body mass, respectively.
Tables 3-7 show the results of the biodistribution studies with the separate enantiomers of anti-2-[^18F]FACPC and racemic anti-2-[^18F]FACBC as a comparison in SCiD mice implanted in their flanks with A549, human lung cancer cells and DU145, human prostate cancer cells.

[7] = tested on: SKOV3 Human Ovarian carcinoma cells; assay: in vitro amino acid uptake in SKOV3 cells; type: cell-based
Source text: as §1, §2, §3, §4

[8] = tested on: LnCap Human Prostate carcinoma cells; assay: in vitro amino acid uptake in LnCap cells; type: cell-based
Protocol: as §5, §3, §4

[9] = tested on: MIA PaCa-2 Human Pancreas carcinoma cells; assay: in vitro amino acid uptake in MIA PaCa-2 cells; type: cell-based
Protocol: as §5, §3, §4

N[C@]1(C(=O)O)CCC[C@@H]1[18F] (single isomer, unassigned; enantiomer 1) [Enantiomer 1, anti-2-[^18F]FACPC]
% Dose uptake per 0.5 × 10−6 Cells [1]: 13 % Dose/0.5 × 10^−6 | % Dose uptake per 0.5 × 10−6 Cells [2]: 12 % Dose/0.5 × 10^−6 | % Dose uptake per 0.5 × 10−6 Cells [3]: 9.1 % Dose/0.5 × 10^−6 | % Dose uptake per 0.5 × 10−6 Cells [4]: 28 % Dose/0.5 × 10^−6 | % Dose uptake per 0.5 × 10−6 Cells [5]: 8 % Dose/0.5 × 10^−6 | in vivo uptake compared with racemic 2-[^18F]FACBC ([6]; DU 145 cells implanted subcutaneously in flanks of SCID mice): significantly higher in vivo uptake than racemic 2-[^18F]FACBC | tissue distribution, blood ([6]; 15 min): 3.69 percent dose/gram | tissue distribution, bone ([6]; 15 min): 2.89 percent dose/gram | tissue distribution, brain ([6]; 15 min): 0.70 percent dose/gram | tissue distribution, heart ([6]; 15 min): 3.76 percent dose/gram | tissue distribution, kidney ([6]; 15 min): 8.83 percent dose/gram | tissue distribution, liver ([6]; 15 min): 4.34 percent dose/gram | tissue distribution, lung ([6]; 15 min): 4.38 percent dose/gram | tissue distribution, muscle ([6]; 15 min): 2.23 percent dose/gram | tissue distribution, pancreas ([6]; 15 min): 47 percent dose/gram | tissue distribution, spleen ([6]; 15 min): 7.4 percent dose/gram | tissue distribution, tumor ([6]; 15 min): 3.82 percent dose/gram | tissue distribution, blood ([6]; 30 min): 2.44 percent dose/gram | tissue distribution, bone ([6]; 30 min): 3.06 percent dose/gram | tissue distribution, brain ([6]; 30 min): 0.49 percent dose/gram | tissue distribution, heart ([6]; 30 min): 2.71 percent dose/gram | tissue distribution, kidney ([6]; 30 min): 5.36 percent dose/gram | tissue distribution, liver ([6]; 30 min): 2.74 percent dose/gram | tissue distribution, lung ([6]; 30 min): 2.78 percent dose/gram | tissue distribution, muscle ([6]; 30 min): 2.31 percent dose/gram | tissue distribution, pancreas ([6]; 30 min): 28 percent dose/gram | tissue distribution, spleen ([6]; 30 min): 6.70 percent dose/gram | tissue distribution, tumor ([6]; 30 min): 3.54 percent dose/gram | tissue distribution, blood ([6]; 60 min): 1.7 percent dose/gram | tissue distribution, bone ([6]; 60 min): 2.58 percent dose/gram | tissue distribution, brain ([6]; 60 min): 0.62 percent dose/gram | tissue distribution, heart ([6]; 60 min): 2.2 percent dose/gram | tissue distribution, kidney ([6]; 60 min): 4.07 percent dose/gram | tissue distribution, liver ([6]; 60 min): 1.96 percent dose/gram | tissue distribution, lung ([6]; 60 min): 1.91 percent dose/gram | tissue distribution, muscle ([6]; 60 min): 2.15 percent dose/gram | tissue distribution, pancreas ([6]; 60 min): 22 percent dose/gram | tissue distribution, spleen ([6]; 60 min): 2.79 percent dose/gram | tissue distribution, tumor ([6]; 60 min): 3.07 percent dose/gram | % Dose uptake per 0.5 × 10−6 Cells [7]: 7 % Dose/0.5 × 10^−6 | % Dose uptake per 0.5 × 10−6 Cells [8]: 6.5 % Dose/0.5 × 10^−6 | % Dose uptake per 0.5 × 10−6 Cells [9]: 6.8 % Dose/0.5 × 10^−6

NC1(C(=O)O)CCC1[18F] (racemic) [racemic anti-2-[^18F]FACBC]
% Dose uptake per 0.5 × 10−6 Cells [1]: 8.9 % Dose/0.5 × 10^−6 | % Dose uptake per 0.5 × 10−6 Cells [2]: 2.3 % Dose/0.5 × 10^−6 | % Dose uptake per 0.5 × 10−6 Cells [4]: 8.3 % Dose/0.5 × 10^−6 | % Dose uptake per 0.5 × 10−6 Cells [5]: 6.4 % Dose/0.5 × 10^−6 | tissue distribution, blood ([6]; 15 min): 2.80 percent dose/gram | tissue distribution, bone ([6]; 15 min): 1.06 percent dose/gram | tissue distribution, brain ([6]; 15 min): 0.17 percent dose/gram | tissue distribution, heart ([6]; 15 min): 2.07 percent dose/gram | tissue distribution, kidney ([6]; 15 min): 6.82 percent dose/gram | tissue distribution, liver ([6]; 15 min): 2.32 percent dose/gram | tissue distribution, lung ([6]; 15 min): 3.35 percent dose/gram | tissue distribution, muscle ([6]; 15 min): 0.83 percent dose/gram | tissue distribution, pancreas ([6]; 15 min): 29.02 percent dose/gram | tissue distribution, spleen ([6]; 15 min): 4.38 percent dose/gram | tissue distribution, tumor ([6]; 15 min): 2.95 percent dose/gram | tissue distribution, blood ([6]; 30 min): 1.86 percent dose/gram | tissue distribution, bone ([6]; 30 min): 1.63 percent dose/gram | tissue distribution, brain ([6]; 30 min): 0.16 percent dose/gram | tissue distribution, heart ([6]; 30 min): 1.82 percent dose/gram | tissue distribution, kidney ([6]; 30 min): 4.47 percent dose/gram | tissue distribution, liver ([6]; 30 min): 2.09 percent dose/gram | tissue distribution, lung ([6]; 30 min): 2.32 percent dose/gram | tissue distribution, muscle ([6]; 30 min): 1.00 percent dose/gram | tissue distribution, pancreas ([6]; 30 min): 29.29 percent dose/gram | tissue distribution, spleen ([6]; 30 min): 4.74 percent dose/gram | tissue distribution, tumor ([6]; 30 min): 3.54 percent dose/gram | tissue distribution, blood ([6]; 60 min): 0.80 percent dose/gram | tissue distribution, bone ([6]; 60 min): 2.22 percent dose/gram | tissue distribution, brain ([6]; 60 min): 0.18 percent dose/gram | tissue distribution, heart ([6]; 60 min): 1.32 percent dose/gram | tissue distribution, kidney ([6]; 60 min): 1.82 percent dose/gram | tissue distribution, liver ([6]; 60 min): 1.23 percent dose/gram | tissue distribution, lung ([6]; 60 min): 1.18 percent dose/gram | tissue distribution, muscle ([6]; 60 min): 1.15 percent dose/gram | tissue distribution, pancreas ([6]; 60 min): 15.01 percent dose/gram | tissue distribution, spleen ([6]; 60 min): 2.85 percent dose/gram | tissue distribution, tumor ([6]; 60 min): 2.57 percent dose/gram | tissue distribution, blood ([6]; 120 min): 0.39 percent dose/gram | tissue distribution, bone ([6]; 120 min): 0.66 percent dose/gram | tissue distribution, brain ([6]; 120 min): 0.13 percent dose/gram | tissue distribution, heart ([6]; 120 min): 0.82 percent dose/gram | tissue distribution, kidney ([6]; 120 min): 0.78 percent dose/gram | tissue distribution, liver ([6]; 120 min): 0.43 percent dose/gram | tissue distribution, lung ([6]; 120 min): 0.46 percent dose/gram | tissue distribution, muscle ([6]; 120 min): 0.72 percent dose/gram | tissue distribution, pancreas ([6]; 120 min): 5.92 percent dose/gram | tissue distribution, spleen ([6]; 120 min): 0.87 percent dose/gram | tissue distribution, tumor ([6]; 120 min): 1.85 percent dose/gram | uptake of radioactivity in the tumors compared with muscle ([6]; DU145 tumors, SCID mice, time points sampled post injection): greater than muscle | % Dose uptake per 0.5 × 10−6 Cells [7]: 2.2 % Dose/0.5 × 10^−6

— patent US20130123618A1, “Imaging Agents” (priority 2008, published 2013)
